# From patent US20250221405A1, “ROOT NODULE FORMATION-PROMOTING COMPOSITION, AND ROOT HAIR FORMATION-PROMOTING COMPOSITION” (KANEKA CORPORATION, priority 2022, published 2025)
# What was measured:
# soybeans (Fukuyutaka) [1] = assay: Experimental Example 4: soil irrigation with biosurfactant and/or KVP, root nodule number and weight, root weight; assay type: in vivo, soybean; conditions: with rhizobium materials
# Experimental: For each of the following treatments, to a mixture of rhizobium materials (rhizobium and azospirillum) mixed with water at a proportion of 10 g/L, SF, SL, or RL was added in the following amount to prepare a solution comprising the rhizobium materials and SF, SL, or RL (a composition for promoting root nodule formation).
# A 9 cm poly pot was filled with sterilized fertilizer-free culture soil (Heiwa) and seeded three seeds of soybeans (Fukuyutaka) in each pot.
# After seeding, the seeds were cultivated in a greenhouse set at 28° C. during the day (14h) and 18° C. at night (10h).
# Seven days after the seeding, the soybeans in each pot were thinned to one plant, and each pot was irrigated with 4.3 ml of the composition for promoting root nodule formation (in the treatment T1, a mixture of rhizobium materials (rhizobium and azospirillum) mixed with water at a proportion of 10 g/L).
# (§1) Twenty-one days after the irrigation, the roots were washed with water so as not to remove root nodules, the culture soil was removed, and then, the root nodules formed on the roots were collected.
# After the seeding, each pot was fertilized with ½ Hoagland solution (50 mL) once a week. In addition, experiments were conducted on eight pots (eight plants) in each treatment.
# A plurality of experiments were conducted by changing the type of the composition for promoting root nodule formation and the like. Tables 4-1 and 4-2 show the date of seeding, the date of irrigating, the date of investigating the number of root nodules, the composition for promoting root nodule formation, and the investigation result of the number of root nodules. Note that the number of root nodules is indicated by a relative value with Tl taken as 100, with a numerical value in parentheses indicating the average number of root nodules actually measured (pieces/plant). In addition, fresh root nodule weight means the weight of root nodules before drying on the day of collection and is indicated by a relative value with Tl taken as 100. Dried underground part weight means the weight of roots dried for 48 hours at 80° C. and indicated by a relative value with Tl taken as 100.
# soybeans (Fukuyutaka) [2] = assay: Experimental Example 1: seed coating, number of root nodules; assay type: in vivo, soybean; conditions: Table 1-1
# Experimental: A solution of SF, SL, or RL dissolved in water (a composition for promoting root nodule formation) as the following amount in each of the following treatments was prepared. The seeds of soybeans (Fukuyutaka) were coated using the solution in an amount of 800 μL/100 g seed to obtain coated seeds.
# A 9 cm poly pot was filled with culture soil and seeded with three coated seeds in each pot.
# After seeding, the coated seeds were cultivated in a greenhouse set at 28° C. during the day (14h) and 18° C. at night (10h).
# Seven days after the seeding, the soybeans in each pot were thinned to one plant, and each pot was irrigated with 4.3 ml of a mixture of rhizobium materials (rhizobium and azospirillum) mixed with water at a proportion of 10 g/L.
# as §1
# After the seeding, each pot was fertilized with ½ Hoagland solution once a week. In addition, experiments were conducted on eight pots (eight plants) in each treatment.
# A plurality of experiments were conducted by changing the type of the composition for promoting root nodule formation and the like. Tables 1-1 and 1-2 show the date of seeding, the date of irrigating, the date of investigating the number of root nodules, the amount of SF, SL, or RL in the composition for promoting root nodule formation, and the investigation result of the number of root nodules. Note that the number of root nodules is indicated by a relative value with Tl taken as 100, with a numerical value in parentheses indicating the average number of root nodules actually measured (pieces/plant).
# [3] = Table 4-1, single agent diluted 1000 times
# [4] = Table 4-1, single agent diluted 5000 times
# [5] = Table 4-1, single agent diluted 10000 times
# [6] = seed coating 0.1 g/t seed (diluted 80000 times), 21 days after rhizobium irrigation
# [7] = seed coating 1 g/t seed (diluted 8000 times)
# [8] = seed coating 5 g/t seed (diluted 1600 times)
# [9] = seed coating 10 g/t seed (diluted 800 times)
# [10] = seed coating 25 g/t seed (diluted 320 times)
# [11] = seed coating 50 g/t seed (diluted 160 times)
substance,measurement,setting,value
surfactin Na [SF],"Dried Underground Part Weight, relative value with T1 taken as 100",soybeans (Fukuyutaka) [1]; [3],101
same,"Fresh Root Nodule Weight, relative value with T1 taken as 100",soybeans (Fukuyutaka) [1]; [3],124
same,"Number of Root Nodules, average number actually measured",soybeans (Fukuyutaka) [1]; [3],19.6 pieces/plant
same,"Number of Root Nodules, relative value with T1 taken as 100",soybeans (Fukuyutaka) [1]; [3],114
same,"Dried Underground Part Weight, relative value with T1 taken as 100",soybeans (Fukuyutaka) [1]; [4],103
same,"Fresh Root Nodule Weight, relative value with T1 taken as 100",soybeans (Fukuyutaka) [1]; [4],121
same,"Number of Root Nodules, average number actually measured",soybeans (Fukuyutaka) [1]; [4],19.0 pieces/plant
same,"Number of Root Nodules, relative value with T1 taken as 100",soybeans (Fukuyutaka) [1]; [4],110
same,"Dried Underground Part Weight, relative value with T1 taken as 100",soybeans (Fukuyutaka) [1]; [5],99
same,"Fresh Root Nodule Weight, relative value with T1 taken as 100",soybeans (Fukuyutaka) [1]; [5],107
same,"Number of Root Nodules, average number actually measured",soybeans (Fukuyutaka) [1]; [5],18.0 pieces/plant
same,"Number of Root Nodules, relative value with T1 taken as 100",soybeans (Fukuyutaka) [1]; [5],104
same,"Number of Root Nodules, average number actually measured",soybeans (Fukuyutaka) [2]; [6],15.4 pieces/plant
same,"Number of Root Nodules, relative value with T1 taken as 100",soybeans (Fukuyutaka) [2]; [6],105
same,"Number of Root Nodules, average number actually measured",soybeans (Fukuyutaka) [2]; [7],16.6 pieces/plant
same,"Number of Root Nodules, relative value with T1 taken as 100",soybeans (Fukuyutaka) [2]; [7],114
same,"Number of Root Nodules, average number actually measured",soybeans (Fukuyutaka) [2]; [8],16.6 pieces/plant
same,"Number of Root Nodules, relative value with T1 taken as 100",soybeans (Fukuyutaka) [2]; [8],114
same,"Number of Root Nodules, average number actually measured",soybeans (Fukuyutaka) [2]; [9],15.4 pieces/plant
same,"Number of Root Nodules, relative value with T1 taken as 100",soybeans (Fukuyutaka) [2]; [9],105
same,"Number of Root Nodules, average number actually measured",soybeans (Fukuyutaka) [2]; [10],16.8 pieces/plant
same,"Number of Root Nodules, relative value with T1 taken as 100",soybeans (Fukuyutaka) [2]; [10],115
same,"Number of Root Nodules, average number actually measured",soybeans (Fukuyutaka) [2]; [11],17.3 pieces/plant
same,"Number of Root Nodules, relative value with T1 taken as 100",soybeans (Fukuyutaka) [2]; [11],118
